From PubChem BioAssay AID330 (DTP/NCI, 2004)
Values joined by “and” are separate entries in the source; they are usually repeats but may differ in a detail not shown here. Identical values can stand only once. Toxic doses and inconclusive results are not listed.

Tested on: P388 leukemia ip, CD2F1 mice, survival T/C
Assay: NCI In Vivo Anticancer Drug Screen. Data for tumor model P388 Leukemia (intraperitoneal) in CD2F1 (CDF1) mice
Conditions: endpoint: median survival time, higher = longer survival
Outline: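 Mice carrying the transplanted tumor received test compound or vehicle. Survival was recorded in each group, and the value is the treated-group measurement divided by that of the vehicle-treated control group.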

O=NN(CCCl)C(=O)NCCCl
T/C (dose: 1.0 mg/kg/injection, schedule: Q01DX001 (ip), vehicle: Klucel (hydroxypropylcellulose) (HPC)): 122 % of control | T/C (dose: 1.0 mg/kg/injection, schedule: Q01DX001 (ip), vehicle: saline with Tween-80): 115 % of control | T/C (dose: 1.0 mg/kg/injection, schedule: Q01DX001 (ip), vehicle: suspension in saline): 107 % of control | T/C (dose: 1.0 mg/kg/injection, schedule: Q01DX005 (ip), vehicle: saline + alcohol): 112 % of control | T/C (dose: 2.0 mg/kg/injection, schedule: Q01DX001 (ip), vehicle: Klucel (hydroxypropylcellulose) (HPC)): 112 % of control | T/C (dose: 2.0 mg/kg/injection, schedule: Q01DX001 (ip), vehicle: saline with Tween-80): 107 % of control | T/C (dose: 2.0 mg/kg/injection, schedule: Q01DX001 (ip), vehicle: suspension in saline): 117 % of control | T/C (dose: 2.0 mg/kg/injection, schedule: Q01DX009 (ip), vehicle: other): 163 % of control and 175 % of control | T/C (dose: 2.0 mg/kg/injection, schedule: Q01DX009 (ip), vehicle: saline with Tween-80): 173 % of control | T/C (dose: 2.5 mg/kg/injection, schedule: Q04DX003 (iv), vehicle: saline + alcohol): 152 % of control | T/C (dose: 3.24 mg/kg/injection, schedule: Q04DX003 (ip), vehicle: saline + alcohol): 208 % of control | T/C (dose: 3.3 mg/kg/injection, schedule: Q01DX005 (ip), vehicle: Klucel (hydroxypropylcellulose) (HPC)): 267 % of control | T/C (dose: 3.3 mg/kg/injection, schedule: Q01DX005 (ip), vehicle: saline + alcohol): 250 % of control and 265 % of control | T/C (dose: 3.3 mg/kg/injection, schedule: Q01DX009 (ip), vehicle: saline + alcohol): 183 % of control | T/C (dose: 3.75 mg/kg/injection, schedule: Q04DX003 (ip), vehicle: saline): 176 % of control | T/C (dose: 3.89 mg/kg/injection, schedule: Q04DX003 (ip), vehicle: saline + alcohol): 178 % of control | T/C (dose: 4.0 mg/kg/injection, schedule: Q01DX001 (ip), vehicle: saline + alcohol): 123 % of control | T/C (dose: 4.0 mg/kg/injection, schedule: Q01DX005 (ip), vehicle: saline + alcohol): 170 % of control | T/C (dose: 4.0 mg/kg/injection, schedule: Q01DX009 (ip), vehicle: other): 215 % of control and 287 % of control | T/C (dose: 4.0 mg/kg/injection, schedule: Q01DX009 (ip), vehicle: saline with Tween-80): 262 % of control | T/C (dose: 4.4 mg/kg/injection, schedule: Q01DX005 (ip), vehicle: saline + alcohol): 222 % of control | T/C (dose: 5.0 mg/kg/injection, schedule: Q04DX003 (ip), vehicle: saline + alcohol): 206 % of control | T/C (dose: 5.0 mg/kg/injection, schedule: Q04DX003 (iv), vehicle: saline + alcohol): 177 % of control | T/C (dose: 5.4 mg/kg/injection, schedule: Q04DX003 (ip), vehicle: saline + alcohol): 185 % of control | T/C (dose: 6.48 mg/kg/injection, schedule: Q04DX002 (ip), vehicle: saline + alcohol): 163 % of control and 169 % of control | T/C (dose: 6.48 mg/kg/injection, schedule: Q04DX003 (ip), vehicle: saline + alcohol): 219 % of control | T/C (dose: 6.6 mg/kg/injection, schedule: Q01DX005 (ip), vehicle: saline + alcohol): 305 % of control | T/C (dose: 7.5 mg/kg/injection, schedule: Q01DX001 (iv), vehicle: saline + alcohol): 164 % of control | T/C (dose: 7.5 mg/kg/injection, schedule: Q04DX003 (ip), vehicle: saline): 219 % of control | T/C (dose: 8.0 mg/kg/injection, schedule: Q01DX001 (ip), vehicle: Klucel (hydroxypropylcellulose) (HPC)): 171 % of control | T/C (dose: 8.0 mg/kg/injection, schedule: Q01DX001 (ip), vehicle: suspension in saline): 166 % of control | T/C (dose: 8.0 mg/kg/injection, schedule: Q01DX001 (ip), vehicle: water): 200 % of control | T/C (dose: 8.0 mg/kg/injection, schedule: Q01DX005 (ip), vehicle: saline + alcohol): 254 % of control | T/C (dose: 8.0 mg/kg/injection, schedule: Q01DX009 (ip), vehicle: other): 264 % of control and 370 % of control | T/C (dose: 8.0 mg/kg/injection, schedule: Q01DX009 (ip), vehicle: saline with Tween-80): 297 % of control | T/C (dose: 9.0 mg/kg/injection, schedule: Q04DX003 (ip), vehicle: saline + alcohol): 180 % of control | T/C (dose: 10.0 mg/kg/injection, schedule: Q01DX005 (ip), vehicle: Klucel (hydroxypropylcellulose) (HPC)): 123 % of control | T/C (dose: 10.0 mg/kg/injection, schedule: Q01DX009 (ip), vehicle: Klucel (hydroxypropylcellulose) (HPC)): 98 % of control | T/C (dose: 10.0 mg/kg/injection, schedule: Q01DX009 (ip), vehicle: saline): 240 % of control | T/C (dose: 10.0 mg/kg/injection, schedule: Q04DX003 (ip), vehicle: saline + alcohol): 320 % of control | T/C (dose: 10.0 mg/kg/injection, schedule: Q04DX003 (iv), vehicle: saline + alcohol): 265 % of control | T/C (dose: 10.8 mg/kg/injection, schedule: Q04DX002 (ip), vehicle: saline + alcohol): 200 % of control and 206 % of control | T/C (dose: 10.8 mg/kg/injection, schedule: Q04DX003 (ip), vehicle: saline + alcohol): 295 % of control | T/C (dose: 12.5 mg/kg/injection, schedule: Q01DX005 (ip), vehicle: saline with Tween-80): 275 % of control and 315 % of control | T/C (dose: 15.0 mg/kg/injection, schedule: Q01DX001 (iv), vehicle: saline + alcohol): 222 % of control | T/C (dose: 15.0 mg/kg/injection, schedule: Q01DX009 (ip), vehicle: saline): 300 % of control | T/C (dose: 15.0 mg/kg/injection, schedule: Q04DX003 (ip), vehicle: saline + alcohol): 336 % of control | T/C (dose: 15.0 mg/kg/injection, schedule: Q04DX003 (ip), vehicle: saline): 355 % of control | T/C (dose: 16.0 mg/kg/injection, schedule: Q01DX001 (ip), vehicle: Klucel (hydroxypropylcellulose) (HPC)): 210 % of control | T/C (dose: 16.0 mg/kg/injection, schedule: Q01DX001 (ip), vehicle: saline with Tween-80): 192 % of control and 240 % of control | T/C (dose: 16.0 mg/kg/injection, schedule: Q01DX001 (ip), vehicle: suspension in saline): 186 % of control | T/C (dose: 16.0 mg/kg/injection, schedule: Q01DX001 (ip), vehicle: water): 429 % of control | T/C (dose: 16.0 mg/kg/injection, schedule: Q01DX001 (oral), vehicle: saline with Tween-80): 163 % of control | T/C (dose: 16.0 mg/kg/injection, schedule: Q01DX005 (ip), vehicle: saline + alcohol): 409 % of control | T/C (dose: 16.0 mg/kg/injection, schedule: Q01DX009 (ip), vehicle: other): 111 % of control and 120 % of control | T/C (dose: 16.0 mg/kg/injection, schedule: Q01DX009 (ip), vehicle: saline with Tween-80): 118 % of control | T/C (dose: 18.0 mg/kg/injection, schedule: Q04DX002 (ip), vehicle: saline + alcohol): 250 % of control and 254 % of control | T/C (dose: 18.0 mg/kg/injection, schedule: Q04DX003 (ip), vehicle: saline + alcohol): 419 % of control | T/C (dose: 20.0 mg/kg/injection, schedule: Q01DX001 (ip), vehicle: Klucel (hydroxypropylcellulose) (HPC)): 241 % of control | T/C (dose: 20.0 mg/kg/injection, schedule: Q04DX003 (ip), vehicle: saline + alcohol): 165 % of control | T/C (dose: 20.0 mg/kg/injection, schedule: Q04DX003 (iv), vehicle: saline + alcohol): 291 % of control | T/C (dose: 24.0 mg/kg/injection, schedule: Q01DX001 (ip), vehicle: saline): 230 % of control | T/C (dose: 25.0 mg/kg/injection, schedule: Q01DX005 (ip), vehicle: saline with Tween-80): 184 % of control | T/C (dose: 25.0 mg/kg/injection, schedule: Q04DX003 (ip), vehicle: saline + alcohol): 233 % of control | T/C (dose: 30.0 mg/kg/injection, schedule: Q01DX001 (iv), vehicle: saline + alcohol): 352 % of control | T/C (dose: 30.0 mg/kg/injection, schedule: Q01DX009 (ip), vehicle: saline): 110 % of control | T/C (dose: 30.0 mg/kg/injection, schedule: Q04DX002 (ip), vehicle: saline + alcohol): 416 % of control and 441 % of control | T/C (dose: 30.0 mg/kg/injection, schedule: Q04DX003 (ip), vehicle: saline + alcohol): 166 % of control | T/C (dose: 30.0 mg/kg/injection, schedule: Q04DX003 (ip), vehicle: saline): 441 % of control | T/C (dose: 31.25 mg/kg/injection, schedule: Q01DX001 (ip), vehicle: saline with Tween-80): 275 % of control | T/C (dose: 32.0 mg/kg/injection, schedule: Q01DX001 (ip), vehicle: Klucel (hydroxypropylcellulose) (HPC)): 269 % of control | T/C (dose: 32.0 mg/kg/injection, schedule: Q01DX001 (ip), vehicle: saline with Tween-80): 272 % of control and 588 % of control | T/C (dose: 32.0 mg/kg/injection, schedule: Q01DX001 (ip), vehicle: saline): 606 % of control | T/C (dose: 32.0 mg/kg/injection, schedule: Q01DX001 (ip), vehicle: suspension in saline): 289 % of control | T/C (dose: 32.0 mg/kg/injection, schedule: Q01DX001 (ip), vehicle: water): 429 % of control | T/C (dose: 32.0 mg/kg/injection, schedule: Q01DX001 (oral), vehicle: saline with Tween-80): 227 % of control | T/C (dose: 40.0 mg/kg/injection, schedule: Q01DX001 (ip), vehicle: Klucel (hydroxypropylcellulose) (HPC)): 267 % of control | T/C (dose: 62.5 mg/kg/injection, schedule: Q01DX001 (ip), vehicle: saline with Tween-80): 275 % of control and 297 % of control | T/C (dose: 64.0 mg/kg/injection, schedule: Q01DX001 (ip), vehicle: saline with Tween-80): 107 % of control and 58 % of control | T/C (dose: 64.0 mg/kg/injection, schedule: Q01DX001 (ip), vehicle: suspension in saline): 161 % of control | T/C (dose: 64.0 mg/kg/injection, schedule: Q01DX001 (oral), vehicle: saline with Tween-80): 118 % of control | T/C (dose: 80.0 mg/kg/injection, schedule: Q01DX001 (ip), vehicle: Klucel (hydroxypropylcellulose) (HPC)): 267 % of control | T/C (dose: 128.0 mg/kg/injection, schedule: Q01DX001 (ip), vehicle: Klucel (hydroxypropylcellulose) (HPC)): 98 % of control | T/C (dose: 128.0 mg/kg/injection, schedule: Q01DX001 (ip), vehicle: saline with Tween-80): 98 % of control and 58 % of control | T/C (dose: 128.0 mg/kg/injection, schedule: Q01DX001 (ip), vehicle: suspension in saline): 107 % of control
